Experimental data reported in patent US20250197389A1, “NITROGEN-CONTAINING HETEROCYCLIC COMPOUND” (SHANGHAI SHIJIANG BIOTECHNOLOGY CO., LTD, priority 2022, published 2025).

Experiments:
mPTP-inactive Daoy cell = experiment: Inhibitory effect on mPTP-inactive Daoy cell (PPIF shRNA; Promega CellTiter-Glo, intracellular ATP); type: cell-based, human; conditions: Daoy cell transfected with virus vector carrying PPIF shRNA
Source text: The activity of mitochondria permeability transition pore (mPTP) was regulated by the PPIF protein. […] PPIF protein activity was restricted by the expression level of PPIF protein in cell.

mPTP-active Daoy cell = experiment: Inhibitory effect on mPTP-active Daoy cell (Promega CellTiter-Glo, intracellular ATP); type: cell-based, human; conditions: Daoy cell transfected with empty virus vector without PPIF shRNA

Row | Structure (SMILES) | IC50 (mPTP-inactive Daoy cell; Homo sapiens, Daoy) | IC50 (mPTP-active Daoy cell; Homo sapiens, Daoy) | IC50 (mPTP-inactive Daoy cell) | IC50 (mPTP-active Daoy cell)
1 | COc1ccc2c(c1OCCN1CCCCC1)C(C)N1CCc3cc4c(cc3C1=C2)OCO4 (centres unmarked) [AB35443] | 31000 nM | 30 µM |  | 
2 | COc1ccc2c(c1OC)C(n1cccc1)N1CCc3cc4c(cc3C1=C2)OCO4 (centres unmarked) [AB36520] | 16000 nM | 16.1 µM |  | 
3 | COc1ccc2c(c1N1CCCCCC1)CN1CCc3cc4c(cc3C1=C2)OCO4 [AB36493] | 350 nM | 1.34 µM |  | 
4 | COc1ccc2c(c1OCCCCl)C(C1CCC1)N1CCc3cc4c(cc3C1=C2)OCO4 (centres unmarked) [AB35490] | 3760 nM | 10.6 µM |  | 
5 | COc1ccc2c(c1OC)C(c1ccncc1)N1CCc3cc4c(cc3C1=C2)OCO4 (centres unmarked) [AB36488] | 26900 nM | 27 µM |  | 
6 | COc1ccc2c(c1OCCF)CN1CCc3cc4c(cc3C1=C2)OCO4 [AB35599] | 2430 nM | 5.41 µM |  | 
7 | C1=C2c3cc4c(cc3CCN2Cc2cc3c(cc21)OCO3)OCO4 [AB36428] | 400 nM | 0.92 µM |  | 
8 | COc1ccc2c(c1N1CCC(Cl)CC1)CN1CCc3cc4c(cc3C1=C2)OCO4 [AB35550] | 2050 nM | 6.36 µM |  | 
9 | [2H]C1([2H])c2c(ccc(OC)c2OC)C=C2c3cc4c(cc3CCN21)OCO4 [AB36476] |  |  | 1100 nM | 2.4 µM
10 | COc1ccc2c(c1Cl)CN1CCc3cc4c(cc3C1=C2)OCO4 [AB36450] | 2230 nM | 5.12 µM |  | 
11 | COc1ccc2c(c1OCCBr)CN1CCc3cc4c(cc3C1=C2)OCO4 [AB36403] | 540 nM | 1.66 µM |  | 
12 | [2H]C1c2c(ccc(OC)c2OC)C=C2c3cc4c(cc3CCN21)OCO4 (centres unmarked) [AB36415] | 1070 nM | 2.18 µM |  | 
13 | COc1ccc2c(c1OCCCCl)C(C(Cl)(Cl)Cl)N1CCc3cc4c(cc3C1=C2)OCO4 (centres unmarked) [AB35441] | 1270 nM | 2.88 µM |  | 
14 | CCCCCC1c2c(ccc3c2OCO3)C=C2c3cc4c(cc3CCN21)OCO4 (centres unmarked) [AB36433] | 580 nM | 1.92 µM |  | 
15 | CCCC1=C2c3cc4c(cc3CCN2C(C(Cl)(Cl)Cl)c2c1ccc(OC)c2OC)OCO4 (centres unmarked) [AB35492] | 1340 nM | 3.78 µM |  | 
16 | CC1=C2c3cc4c(cc3CCN2C(C(Cl)(Cl)Cl)c2c1ccc1c2OCO1)OCO4 (centres unmarked) [AB36442] | 29200 nM | 29.9 µM |  | 
17 | CCCCCC1=C2c3cc4c(cc3CCN2C(C2CCCC2)c2c1ccc(OC)c2OC)OCO4 (centres unmarked) [AB35522] | 1340 nM | 3.95 µM |  | 

Row | Structure (SMILES) | IC50 (mPTP-inactive Daoy cell; Homo sapiens, Daoy) | IC50 (mPTP-active Daoy cell; Homo sapiens, Daoy) | IC50 (mPTP-inactive Daoy cell) | IC50 (mPTP-active Daoy cell)
18 | COc1ccc2c(c1NCCc1ccccc1)C(C)N1CCc3cc4c(cc3C1=C2)OCO4 (centres unmarked) [AB31895] | 1460 nM | 3.15 µM |  | 
19 | COc1ccc2c(c1OC)CN1CCc3cc4c(cc3C1=C2Cc1ccc(C(C)C)cc1)OCO4 [AB31870] | 1860 nM | 3.94 µM |  | 
20 | CCCCCCC1c2c(ccc(OC)c2OC)C=C2c3cc4c(cc3CCN21)OCCO4 (centres unmarked) [AB31880] | 1130 nM | 2.93 µM |  | 
21 | COc1ccc2c(c1OC(=O)CC13CC4CC(CC(C4)C1)C3)C(C1CCCC1)N1CCc3cc4c(cc3C1=C2)OCO4 (centres unmarked) [AB35459] | 6180 nM | 12.5 µM |  | 
22 | CCCCOc1c(OC)ccc2c1C(C(Cl)(Cl)Cl)N1CCc3cc4c(cc3C1=C2)OCO4 (centres unmarked) [AB35494] | 360 nM | 1.28 µM |  | 
23 | COc1ccc2c(c1OC/C=C(\C)CCC=C(C)C)C(C)N1CCc3cc4c(cc3C1=C2)OCO4 (centres unmarked) [AB35402] | 810 nM | 1.72 µM |  | 
24 | CCOc1c(OC)ccc2c1CN1CCc3cc4c(cc3C1=C2)OCO4 [AB35594] | 1100 nM | 2.66 µM |  | 
25 | CCC(CC)COc1c(OC)ccc2c1C(C(Cl)(Cl)Cl)N1CCc3cc4c(cc3C1=C2)OCO4 (centres unmarked) [AB35521] | 1030 nM | 2.4 µM |  | 
26 | COc1ccc2c(c1OC)C(=C(Cl)Cl)N1CCc3cc4c(cc3C1=C2)OCO4 [AB36512] | 7090 nM | 6.42 µM |  | 
27 | COc1ccc2c(c1OC)C(CC(C)=O)N1CCc3cc4c(cc3C1=C2)OCO4 (centres unmarked) [AB36472] | 15900 nM | 15.8 µM |  | 
28 | CCCCC1c2c(c(Br)cc(OC)c2OC)C=C2c3cc4c(cc3CCN21)OCO4 (centres unmarked) [AB31873] | 3130 nM | 6.44 µM |  | 
29 | C1=C2c3cc4c(cc3CCN2C(C2CCCC2)c2cc3c(cc21)OCO3)OCO4 (centres unmarked) [AB35467] | 8210 nM | 16.1 µM |  | 
30 | COc1ccc2c(c1N1CCN(C)CC1)C(C1CCCC1)N1CCc3cc4c(cc3C1=C2)OCO4 (centres unmarked) [AB35519] |  |  | 6030 nM | 13.6 µM
31 | ClC(Cl)(Cl)C1c2c(ccc3c2OCO3)C=C2c3cc4c(cc3CCN21)OCO4 (centres unmarked) [AB35421] | 24900 nM | > 50 µM |  | 
32 | CCCC1=C2c3cc4c(cc3CCN2C(C(Cl)(Cl)Cl)c2c1ccc1c2OCO1)OCO4 (centres unmarked) [AB36427] | 4300 nM | 11.9 µM |  | 
33 | CCCCCCC1c2c(ccc3c2OCO3)C=C2c3cc4c(cc3CCN21)OCO4 (centres unmarked) [AB35426] | 1030 nM | 2.71 µM |  | 
34 | COc1ccc2c(c1OCCCCN)C(C)N1CCc3cc4c(cc3C1=C2)OCO4 (centres unmarked) [AB35429] | 2230 nM | 5.28 µM |  | 
